Measured values published in patent US20130288897A1, “SYNERGISTIC PESTICIDAL COMPOSITIONS” (Dow AgroSciences LLC, priority 2012, published 2013).
Where “and” joins values, the source holds several entries; their conditions need not be identical. Equal values may be shown once.

Experiments:
Format in all cases: in vivo
[1] = system: cotton aphid (CA) Aphis gossypii; assay: Cotton aphid track-sprayer test on cotton: Compound A or imidacloprid with Durango (glyphosate) or Durango Blank and AMS (Example XVI); settings: for % Control (Negatives to zero) Ave / % control Ave / Colbv predicted values Ave: average of 5 reps
Method: Glyphosate resistant cotton plants (Gossypium hirsutum, cv ‘DP493’) were trimmed to 1 true leaf and infested with mixed stages of cotton aphid (CA) Aphis gossypii 24 h prior to application. Mixed developmental stage CA were infested onto the upper surface of each treated leaf by transferring infested foliage from an insectary colony. Each plant was infested with approximately equal numbers of CA based on visual estimation of aphid density on the infested material. Infested plants were held in the growth chamber (L:D 16:8 and 25° C.). Glyphosate (Durango®, Dow AgroSciences, LLC, Indianapolis, Ind.) was mixed with water at a rate equivalent to 15 ml/L (1.2 qt/Ac). […] A glyphosate free formulation of Durango® was prepared using these same mixing instructions. […] High rate Compound A concentrations were created by diluting Compound A technical material with acetone to achieve a 10 ppm solution. […] […] […] Nozzle height above the canopy was held constant at ca. 30 cm. Plants were evaluated after 3 days from the time of infestation by counting all live cotton aphids on each plant.
[…] Percent control for all treatments was calculated using the rep average for the untreated plants.

[2] = system: cotton aphid (CA) Aphis gossypii; assay: Cotton aphid track-sprayer test on cotton: Compound A or imidacloprid with glufosinate (Liberty) and AMS (Example XVII); settings: for % control / % control Negatives to zero / Colby Predicted Values: Rep 1-6
Method: (§1) Glyphosate resistant cotton plants (Gossypium hirsutum, cv ‘DP493’) were trimmed to 1 true leaf and infested with mixed stages of cotton aphid (CA) Aphis gossypii 24 h prior to application. Mixed developmental stage CA were infested onto the upper surface of each treated leaf by transferring infested foliage from an insectary colony. Each plant was infested with approximately equal numbers of CA based on visual estimation of aphid density on the infested material. Infested plants were held in the growth chamber (L:D 16:8 and 25° C.). Glufosinate (Liberty®, Bayer CropScience, Monheim am Rhein, Germany) was mixed with water at a rate equivalent to 5 ml/L (0.4 qt/Ac). […] High rate Compound A concentrations were created by diluting Compound A technical material with acetone to achieve a 10 ppm solution. […] […] […] Nozzle height above the canopy was held constant at ca. 30 cm. Plants were evaluated after 3 days from the time of infestation by counting all live cotton aphids on each plant.
TABLE 6 contains the calculated Colby values for combinations of treatments as well as the outcome of statistical evaluations between predicted (Colby) and actual measured values. These T-test statistics were only calculated for the 0.2 and 0.05 g/Ha rates. […] These same trends were apparent when Compound A was applied with both glufosinate and AMS.

[3] = system: cotton aphid (CA) Aphis gossypii; assay: Cotton aphid track-sprayer test on cotton: Compound A with glufosinate (Liberty) and AMS, rates 0.4, 0.1 and 0.025 g/Ha (Example XVIII)
Method: as §1, with “24 hours” for “24 h”, “a 20” for “a 10”

[4] = 0.0125 g insecticide/Ha with Durango 0.015 ml/ml + AMS 18 g/L
[5] = 0.0125 g insecticide/Ha with Durango 0.015 ml/ml
[6] = 0.0125 g insecticide/Ha with Durango Blank 0.015 ml/ml + AMS 18 g/L
[7] = 0.0125 g insecticide/Ha with Durango Blank 0.015 ml/ml
[8] = 0.05 g insecticide/Ha with Durango 0.015 ml/ml + AMS 18 g/L, Rep 1-5
[9] = 0.05 g insecticide/Ha with Durango 0.015 ml/ml + AMS 18 g/L
[10] = 0.05 g insecticide/Ha with Durango 0.015 ml/ml
[11] = 0.05 g insecticide/Ha with Durango Blank 0.015 ml/ml + AMS 18 g/L
[12] = 0.05 g insecticide/Ha with Durango Blank 0.015 ml/ml
[13] = 0.2 g insecticide/Ha with Durango 0.015 ml/ml + AMS 18 g/L, Rep 1-5
[14] = 0.2 g insecticide/Ha with Durango 0.015 ml/ml + AMS 18 g/L
[15] = 0.2 g insecticide/Ha with Durango 0.015 ml/ml, Rep 1-5
[16] = 0.2 g insecticide/Ha with Durango 0.015 ml/ml
[17] = 0.2 g insecticide/Ha with Durango Blank 0.015 ml/ml + AMS 18 g/L, Rep 1-5
[18] = 0.2 g insecticide/Ha with Durango Blank 0.015 ml/ml + AMS 18 g/L
[19] = 0.2 g insecticide/Ha with Durango Blank 0.015 ml/ml
[20] = 0.0125 g In./Ha + glufosinate 0.005 ml/ml + AMS 18 mg/ml
[21] = 0.05 g In./Ha + glufosinate 0.005 ml/ml
[22] = 0.05 g In./Ha + glufosinate 0.005 ml/ml + AMS 18 mg/ml
[23] = 0.2 g In./Ha + glufosinate 0.005 ml/ml
[24] = 0.2 g In./Ha + glufosinate 0.005 ml/ml + AMS 18 mg/ml
[25] = 0.2 g In./Ha, no glufosinate, no AMS
[26] = 0.025 g In./HA + Lib. 0.005 ml/ml
[27] = 0.025 g In./HA + Lib. 0.005 ml/ml + AMS 18 g/L
[28] = 0.1 g In./HA + Lib. 0.005 ml/ml
[29] = 0.1 g In./HA + Lib. 0.005 ml/ml + AMS 18 g/L
[30] = 0.4 g In./HA + Lib. 0.005 ml/ml
[31] = 0.4 g In./HA + Lib. 0.005 ml/ml + AMS 18 g/L
[32] = Rep 1-6, 0.1 g In./HA + Lib. 0.005 ml/ml
[33] = Rep 1-6, 0.1 g In./HA + Lib. 0.005 ml/ml + AMS 18 g/L
[34] = Rep 1-6, 0.4 g In./HA + Lib. 0.005 ml/ml
[35] = Rep 1-6, 0.4 g In./HA + Lib. 0.005 ml/ml + AMS 18 g/L

## CC(c1ccc(C(F)(F)F)nc1)S(C)(=O)=NC#N (centres unmarked) [Compound A, [1-(6-Trifluoromethylpyridin-3-yl)ethyl](methyl)-oxido-λ^4-sulfanylidenecyanamide]
[1]; [4]
  % Control (Negatives to zero) Ave: 23.8%
  % control Ave: 11.7%
  Colbv predicted values Ave: 48.0
[1]; [5]
  % Control (Negatives to zero) Ave: 17.4%
  % control Ave: 0.5%
  Colbv predicted values Ave: 36.6
[1]; [6]
  % Control (Negatives to zero) Ave: 26.5%
  % control Ave: 25.1%
  Colbv predicted values Ave: 56.2
[1]; [7]
  % Control (Negatives to zero) Ave: 15.8%
  % control Ave: −22.7%
  Colbv predicted values Ave: 36.6
[1]; 0.0125 g insecticide/Ha, no herbicide, no AMS
  % control Ave: 5.5%
[1]; [8]
  % control: 68.6% and 52.3% and 68.2% and 65.8% and 35.3%
  % control Negatives to zero: 68.6% and 52.3% and 68.2% and 65.8% and 35.3%
  CA Counts: 37 and 49 and 36 and 25 and 48
[1]; [9]
  % Control (Negatives to zero) Ave: 58.0%
  % control Ave: 58.0%
  Colbv predicted values Ave: 55.3
[1]; [10]
  % Control (Negatives to zero) Ave: 14.2%
  % control Ave: 9.1%
  Colbv predicted values Ave: 45.2
[1]; [11]
  % Control (Negatives to zero) Ave: 37.9%
  % control Ave: 35.5%
  Colbv predicted values Ave: 56.9
[1]; [12]
  % Control (Negatives to zero) Ave: 36.1%
  % control Ave: 36.1%
  Colbv predicted values Ave: 43.6
[1]; 0.05 g insecticide/Ha, no herbicide, no AMS
  % control Ave: 31.8%
[1]; [13]
  % control: 97.5% and 100.0%
  % control Negatives to zero: 97.5% and 100.0%
[1]; [14]
  % Control (Negatives to zero) Ave: 99.5%
  % control Ave: 99.5%
  Colbv predicted values Ave: 72.8
[1]; [15]
  % control: 89.8% and 96.1% and 76.1% and 91.8% and 96.0%
  % control Negatives to zero: 89.8% and 96.1% and 76.1% and 91.8% and 96.0%
[1]; [16]
  % Control (Negatives to zero) Ave: 90.0%
  % control Ave: 90.0%
  Colbv predicted values Ave: 70.5
[1]; [17]
  % control: 66.9% and 97.1% and 76.1% and 79.5% and 74.4%
  % control Negatives to zero: 68.9% and 97.1% and 76.1% and 79.5% and 74.4%
  Colbv predicted values: 97.5 and 77.2 and 97.3 and 72.7 and 71.7
[1]; [18]
  % Control (Negatives to zero) Ave: 78.8%
  % control Ave: 78.8%
  Colbv predicted values Ave: 83.3
[1]; [19]
  % Control (Negatives to zero) Ave: 60.1%
  % control Ave: 60.1%
  Colbv predicted values Ave: 71.5
[1]; 0.2 g insecticide/Ha, no herbicide, no AMS
  % control Ave: 50.2%
[2]; 0.0125 g In./Ha + glufosinate 0.005 ml/ml
  % control AVE: 57.9%
[2]; [20]
  % control AVE: 85.5%
  % control: 94.7% and 89.7% and 68.6% and 90.7% and 83.8% and 95.5%
  % control Negatives to zero: 94.7% and 89.7% and 68.6% and 90.7% and 83.8% and 93.9%
[2]; 0.0125 g In./Ha, combination with glufosinate
  Colby Predicted Values Ave: 48.7
[2]; 0.0125 g In./Ha, combination with glufosinate and AMS
  Colby Predicted Values Ave: 56.8
[2]; 0.0125 g In./Ha, no glufosinate, no AMS
  % control AVE: 22.9%
[2]; [21]
  % control AVE: 82.1%
  % control: 81.3% and 80.2% and 72.9% and 99.2% and 77.0% and 89.4%
  % control Negatives to zero: 81.3% and 80.2% and 72.9% and 99.2% and 77.0% and 89.4%
[2]; [22]
  % control AVE: 91.8%
  % control: 89.3% and 96.6% and 77.1% and 97.5% and 98.6% and 80.3%
  % control Negatives to zero: 89.3% and 96.6% and 77.1% and 97.5% and 98.6% and 80.3%
[2]; 0.05 g In./Ha, combination with glufosinate
  Colby Predicted Values Ave: 63.4
[2]; 0.05 g In./Ha, combination with glufosinate and AMS
  Colby Predicted Values Ave: 67.4
[2]; 0.05 g In./Ha, no glufosinate, no AMS
  % control AVE: 60.2%
[2]; [23]
  % control AVE: 95.3%
  % control: 97.3% and 95.7% and 93.2% and 94.6% and 86.4%
  % control Negatives to zero: 97.3% and 95.7% and 93.2% and 94.6% and 86.4%
[2]; [24]
  % control AVE: 96.6%
  % control: 98.7% and 94.0% and 94.3% and 97.5% and 98.6% and 93.9%
  % control Negatives to zero: 98.7% and 94.0% and 94.3% and 97.5% and 98.6% and 93.9%
[2]; 0.2 g In./Ha, combination with glufosinate
  Colby Predicted Values Ave: 85.7
[2]; 0.2 g In./Ha, combination with glufosinate and AMS
  Colby Predicted Values Ave: 87.7
[2]; [25]
  % control AVE: 87.0%
  % control: 77.3% and 87.9% and 91.4% and 86.4% and 91.9% and 68.2%
[2]; 0.2 g In./Ha, first block of lines (combination with glufosinate)
  Colby Predicted Values: 77.3 and 91.2 and 95.9 and 90.1 and 91.9 and 68.2
[2]; 0.2 g In./Ha, second block of lines (combination with glufosinate and AMS)
  Colby Predicted Values: 90.0 and 93.9 and 95.3 and 87.0 and 91.9 and 68.2
[3]; [26]
  % Control (Negatives to zero) Ave: 54.2%
  Colby Predicted Values Ave: 56.8
[3]; [27]
  % Control (Negatives to zero) Ave: 85.6%
  Colby Predicted Values Ave: 62.5
[3]; [28]
  % Control (Negatives to zero) Ave: 76.7%
  Colby Predicted Values Ave: 72.4
[3]; [29]
  % Control (Negatives to zero) Ave: 89.7%
  Colby Predicted Values Ave: 76.7
[3]; 0.1 g In./HA, no Lib., no AMS
  % Control (Negatives to zero) Ave: 62.1%
[3]; [30]
  % Control (Negatives to zero) Ave: 99.0%
  Colby Predicted Values Ave: 98.2
[3]; [31]
  % Control (Negatives to zero) Ave: 98.2%
  Colby Predicted Values Ave: 98.4
[3]; 0.4 g In./HA, no Lib., no AMS
  % Control (Negatives to zero) Ave: 97.3%
[3]; 0025 g In./HA, no Lib., no AMS
  % Control (Negatives to zero) Ave: 39.5%
[3]; Rep 1-6, 0.025 g In./HA + Lib. 0.005 ml/ml + AMS 18 g/L
  % control Negatives to zero: 70.0% and 95.4% and 97.0% and 89.1% and 65.9% and 96.2%
[3]; Rep 1-6, 0.025 g In./Ha, no Liberty, no AMS
  CA Counts: 198 and 126 and 194 and 117 and 231 and 212
[3]; [32]
  % control Negatives to zero: 58.2% and 79.2% and 98.0% and 58.5% and 82.6% and 84.0%
  Colby Predicted Values: 74.4 and 70.0 and 71.8 and 78.3 and 93.2 and 46.6
[3]; [33]
  % control Negatives to zero: 95.2% and 89.4% and 91.2% and 81.2% and 99.0% and 81.9%
  Colby Predicted Values: 81.3 and 73.3 and 73.7 and 78.5 and 93.8 and 59.6
[3]; Rep 1-6, 0.1 g In./HA, no Lib., no AMS
  % control Negatives to zero: 65.2% and 70.0% and 54.2% and 73.5% and 70.9% and 38.7%
[3]; [34]
  % control Negatives to zero: 97.8% and 100.0% and 99.0% and 98.4% and 98.7%
  Colby Predicted Values: 99.3 and 97.9 and 96.6 and 99.2 and 97.3
[3]; [35]
  % control Negatives to zero: 98.2% and 100.0% and 98.3% and 92.7%
  Colby Predicted Values: 99.0 and 99.4 and 98.1 and 96.6 and 99.3 and 97.9
[3]; Rep 1-6, 0.4 g In./HA, no Lib., no AMS
  % control Negatives to zero: 98.2% and 99.3% and 96.6% and 95.8% and 96.7% and 96.9%
